Assay results published in US6288037A (BASF Aktiengesellschaft, priority 1996, dated 2001).
Where a SMILES comes first, the peptide text is derived from it.

Legend:
[1] = molecular target: T1, N-His Ich-1 (Homo sapiens, UniProt P42575); assay: In vitro proteolysis assay: cleavage of candidate peptide substrates by N-His Ich-1 (reverse phase HPLC); assay type: biochemical; settings: for % Cleavage after 60 minute reaction: 10 μM peptide, 30° C., pH 6.2, 60 minute reaction; for cleavage by N-His Ich-1 (in words): Tables 1-3
T1 construct: contains Ich-1 amino acid residues 167-435, with an initiator and polyhistidine tag fused to the amino terminus; initiator (Met) + polyhistidine tag (N); made in house
T1 sequence (P42575 184-333): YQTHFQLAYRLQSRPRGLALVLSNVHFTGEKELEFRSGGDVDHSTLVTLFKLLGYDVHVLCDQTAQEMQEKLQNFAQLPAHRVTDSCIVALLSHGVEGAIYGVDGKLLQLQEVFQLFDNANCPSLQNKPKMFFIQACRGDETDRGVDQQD
T1 sequence (P42575 334-452): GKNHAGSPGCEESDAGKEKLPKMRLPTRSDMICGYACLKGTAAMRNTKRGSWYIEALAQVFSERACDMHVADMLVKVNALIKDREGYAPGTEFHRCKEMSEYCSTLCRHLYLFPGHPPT
Excerpt: To identify peptide substrates for Ich-1, candidate peptides were used in in vitro proteolysis assays with recombinant Ich-1 protein. Human Ich-1 enzyme (the nucleotide and amino acid sequences for which are disclosed in Wang, L., et al. (1994) Cell 78:739-750) was expressed recombinantly with an N-terminal polyhistidine tag by methods described in Kamens, J., et al. (1995) J. Biol. Chem. 270:15250-15256. The resulting enzyme, called N-His Ich-1, contains Ich-1 amino acid residues 167-435, with an initiator and polyhistidine tag fused to the amino terminus. The recombinant N-His Ich-1 protein was purified by metal chelating column chromatography as described in Porath, J. (1992) Protein Expression and Purification 3:263-281.
Candidate peptide substrates were synthesized by standard solid phase methods and were purified to ≥95% by reverse-phase chromatography. Peptide identities were confirmed by mass spectrometry. Each peptide was acetylated at the amino-terminus and amidated at the carboxy-terminus. The amino acid sequence of each peptide included at least one Trp or Tyr residue. Stock solutions of each peptide were prepared in dimethylsulfoxide (DMSO) at approximately 10 mM. The precise concentration of each stock solution was determined in duplicate as described in Edelhoch, H. (1967) Biochemistry 6:1948-1954. Dilutions of each stock solution to 500 μM were prepared and stored at -20° C. prior to use in enzyme assays.
To determine the substrate specificity of Ich-1, Vmax /Km values for various candidate peptide substrates were compared using experimental procedures modeled after those of Howard, A., et al. (1991) J. Immunol. 147:2964-2969. Enzyme reaction mixtures (810 μL) were prepared containing: 100 mM sodium acetate (pH 6.2), 20% (v/v) glycerol, 5 mM dithiothreitol, 0.5 mM EDTA and approximately 15 μg N-His Ich-1. These mixtures were capped and preincubated for 30 minutes at 30° C. Candidate peptide substrates were added from 500 μM DMSO stocks to give final concentrations of 10 μM peptide and 2% (v/v) DMSO. The reaction mixtures were then capped and incubation was continued at 30° C. At 10 minute intervals for 60 minutes beginning at t=0, aliquots of 110 μL were removed from each reaction mixture and added to vials containing 11 μL of a solution of 3 M HCl in water to stop the enzyme reaction. Samples were stored at room temperature prior to analysis.
Samples were analyzed by reverse phase HPLC using a 250×4.6 mm C18 reverse phase column (Vydak, Hesperia, Calif.) and a linear gradient of MeCN--H2 O with 0.1% (v/v) TFA. The area under the substrate peaks (arbitrary units) was plotted vs. time of reaction for each substrate and fit into an equation of the form: [formula]
wherein S0 is substrate peak area at time=0, St is substrate peak area at time=t, e is a constant approximately equal to 2.718, k is the first order rate constant formally equal to Vmax /Km and t is time. […] Alternatively, results can be expressed as percent substrate cleavage after a fixed time of reaction.

[2] = tested on: N-His Ich-1; assay: 100 mM sodium acetate (pH 6.2), 20% (v/v) glycerol, 5 mM dithiothreitol, 0.5 mM EDTA and approximately 15 μg N-His Ich-1; settings: Human, 30° C., up to 60 minutes

Compound	% Cleavage after 60 minute reaction [1]	cleavage by N-His Ich-1 (in words) [1]	further results
CC(=O)N[C@@H](CCCNC(=N)N)C(=O)NCC(=O)N[C@H](C(=O)N[C@@H](CC(=O)O)C(=O)N[C@@H](CCC(N)=O)C(=O)N[C@@H](CCC(N)=O)C(=O)N[C@@H](CC(=O)O)C(=O)NCC(=O)N[C@@H](CCCCN)C(=O)N[C@@H](CC(N)=O)C(=O)N[C@@H](Cc1c[nH]cn1)C(=O)N[C@@H](Cc1c[nH]c2ccccc12)C(N)=O)C(C)C [Peptide 1, acetyl-RGVDQQDGKNHW-amide] (Ac-RGVDQQDGKNHW-NH2)	80%	cleaved at a rate significantly greater than the other tested peptides	
CC(=O)N[C@@H](CC(N)=O)C(=O)N[C@@H](CCC(=O)O)C(=O)N[C@@H](C)C(=O)N[C@@H](Cc1ccc(O)cc1)C(=O)N[C@H](C(=O)N[C@@H](Cc1c[nH]cn1)C(=O)N[C@@H](CC(=O)O)C(=O)N[C@@H](C)C(=O)N1CCC[C@H]1C(=O)N[C@H](C(=O)N[C@@H](CCCNC(=N)N)C(=O)N[C@@H](CO)C(=O)N[C@@H](CC(C)C)C(=O)N[C@@H](Cc1ccc(O)cc1)C(N)=O)C(C)C)C(C)C [Peptide 2, acetyl-NEAYVHDAPVRSLY-amide] (Ac-NEAYVHDAPVRSLY-NH2)	0%		
CC(=O)N[C@@H](Cc1c[nH]c2ccccc12)C(=O)NCC(=O)N[C@@H](CC(=O)O)C(=O)N[C@@H](CCC(=O)O)C(=O)N[C@H](C(=O)N[C@@H](CC(=O)O)C(=O)NCC(=O)N[C@H](C(=O)N[C@@H](CC(=O)O)C(=O)N[C@@H](CCC(=O)O)C(=O)N[C@H](C(=O)N[C@@H](Cc1c[nH]c2ccccc12)C(N)=O)C(C)C)C(C)C)C(C)C [Peptide 3, acetyl-WGDEVDGVDEVW-amide] (Ac-WGDEVDGVDEVW-NH2)	0%		
CC(=O)N[C@@H](Cc1c[nH]cn1)C(=O)N[C@@H](CO)C(=O)N[C@@H](CC(C)C)C(=O)N[C@@H](CC(=O)O)C(=O)N[C@@H](CC(N)=O)C(=O)N[C@@H](CCCCN)C(=O)N[C@@H](CC(=O)O)C(=O)NCC(=O)N1CCC[C@H]1C(=O)N[C@H](C(=O)N[C@@H](Cc1c[nH]c2ccccc12)C(N)=O)C(C)C [Peptide 4, acetyl-HSLDNKDGPVW-amide] (Ac-HSLDNKDGPVW-NH2)	0%		
CSCC[C@H](NC(=O)[C@H](CC(=O)O)NC(=O)[C@H](CCC(=O)O)NC(=O)CNC(C)=O)C(=O)N[C@@H](CCC(N)=O)C(=O)N[C@@H](CC(=O)O)C(=O)N[C@@H](CC(N)=O)C(=O)N[C@@H](CO)C(=O)NCC(=O)N[C@H](C(=O)N[C@@H](Cc1ccc(O)cc1)C(=O)N[C@@H](Cc1c[nH]c2ccccc12)C(N)=O)[C@@H](C)O [Peptide 5, acetyl-GEDMQDNSGTYW-amide] (Ac-GEDMQDNSGTYW-NH2)	1%		
CSCC[C@H](NC(=O)[C@H](CCC(N)=O)NC(=O)[C@H](CC(=O)O)NC(=O)[C@H](CO)NC(=O)[C@H](Cc1ccc(O)cc1)NC(C)=O)C(=O)N[C@@H](CC(=O)O)C(=O)NCC(=O)N[C@@H](Cc1ccccc1)C(=O)N[C@@H](Cc1c[nH]cn1)C(=O)N[C@@H](CC(=O)O)C(=O)N[C@@H](CO)C(=O)N[C@@H](Cc1c[nH]c2ccccc12)C(N)=O [Peptide 6, acetyl-YSDQMDGFHDSW-amide] (Ac-YSDQMDGFHDSW-NH2)	0%		
CC[C@H](C)[C@H](NC(=O)CNC(=O)[C@H](CS)NC(C)=O)C(=O)N[C@@H](CCC(=O)O)C(=O)N[C@H](C(=O)N[C@@H](CC(=O)O)C(=O)N[C@@H](CO)C(=O)NCC(=O)N[C@H](C(=O)N[C@@H](CC(=O)O)C(=O)N[C@@H](CC(=O)O)C(=O)N[C@@H](Cc1c[nH]c2ccccc12)C(N)=O)C(C)C)[C@@H](C)O [Peptide 7, acetyl-CGIETDSGVDDW-amide] (Ac-CGIETDSGVDDW-NH2)	8%		
CC(=O)N[C@@H](CC(=O)O)C(=O)N[C@@H](CC(=O)O)C(=O)N[C@@H](CCC(N)=O)C(=O)N[C@@H](CCC(N)=O)C(=O)N[C@@H](CC(=O)O)C(=O)NCC(=O)N[C@@H](Cc1c[nH]c2ccccc12)C(N)=O [Peptide 21, acetyl-DDQQDGW-amide] (Ac-DDQQDGW-NH2)		weak cleavage	
CC(=O)N[C@H](C(=O)N[C@@H](CO)C(=O)N[C@@H](CCC(N)=O)C(=O)N[C@@H](CCC(N)=O)C(=O)N[C@@H](CC(=O)O)C(=O)NCC(=O)N[C@@H](Cc1c[nH]c2ccccc12)C(N)=O)C(C)C [Peptide 22, acetyl-VSQQDGW-amide] (Ac-VSQQDGW-NH2)		tolerated, but is cleaved at a substantially lower efficiency than P4 Asp	
CC(=O)N[C@H](C(=O)N[C@@H](CCC(=O)O)C(=O)N[C@@H](CCC(N)=O)C(=O)N[C@@H](CCC(N)=O)C(=O)N[C@@H](CC(=O)O)C(=O)NCC(=O)N[C@@H](Cc1c[nH]c2ccccc12)C(N)=O)C(C)C [Peptide 23, acetyl-VEQQDGW-amide] (Ac-VEQQDGW-NH2)		not tolerated	
CC(=O)N[C@H](C(=O)N[C@@H](C)C(=O)N[C@@H](CCC(N)=O)C(=O)N[C@@H](CCC(N)=O)C(=O)N[C@@H](CC(=O)O)C(=O)NCC(=O)N[C@@H](Cc1c[nH]c2ccccc12)C(N)=O)C(C)C [Peptide 24, acetyl-VAQQDGW-amide] (Ac-VAQQDGW-NH2)		relatively poor cleavage	
CC(=O)N[C@H](C(=O)N[C@@H](CC(N)=O)C(=O)N[C@@H](CCC(N)=O)C(=O)N[C@@H](CCC(N)=O)C(=O)N[C@@H](CC(=O)O)C(=O)NCC(=O)N[C@@H](Cc1c[nH]c2ccccc12)C(N)=O)C(C)C [Peptide 25, acetyl-VNQQDGW-amide] (Ac-VNQQDGW-NH2)		not tolerated	
CC(=O)N[C@H](C(=O)N[C@@H](CC(=O)O)C(=O)N[C@@H](CCC(N)=O)C(=O)N[C@@H](Cc1ccc(O)cc1)C(=O)N[C@@H](CC(=O)O)C(=O)NCC(=O)N[C@@H](Cc1c[nH]c2ccccc12)C(N)=O)C(C)C [Peptide 40, acetyl-VDQYDGW-amide] (Ac-VDQYDGW-NH2)		poorly cleaved compared to the most preferred peptides	
CC(=O)N[C@H](C(=O)N[C@@H](CC(=O)O)C(=O)N[C@@H](CCC(N)=O)C(=O)N[C@@H](CCC(=O)O)C(=O)N[C@@H](CC(=O)O)C(=O)NCC(=O)N[C@@H](Cc1c[nH]c2ccccc12)C(N)=O)C(C)C [Peptide 41, acetyl-VDQEDGW-amide] (Ac-VDQEDGW-NH2)		poorly cleaved compared to the most preferred peptides	
CC(=O)N[C@H](C(=O)N[C@@H](CC(=O)O)C(=O)N[C@@H](CCC(N)=O)C(=O)N[C@@H](CCC(N)=O)C(=O)N[C@@H](CCC(=O)O)C(=O)NCC(=O)N[C@@H](Cc1c[nH]c2ccccc12)C(N)=O)C(C)C [Peptide 42, acetyl-VDQQEGW-amide] (Ac-VDQQEGW-NH2)		modest cleavage	
Ac-GEDMQDNSGTYW-NH2			not cleaved [2]: 1% cleavage after 60 minute reaction
Ac-HSLDNKDGPVW-NH2			not cleaved [2]: 0% cleavage after 60 minute reaction
Ac-NEAYVHDAPVRSLY-NH2			not cleaved [2]: 0% cleavage after 60 minute reaction
Ac-RGVDQQDGKNHW-NH2			cleaved bond [2]: Asp7-Gly
Ac-WGDEVDGVDEVW-NH2			not cleaved [2]: 0% cleavage after 60 minute reaction
Ac-YSDQMDGFHDSW-NH2			not cleaved [2]: 0% cleavage after 60 minute reaction
